Source: PubChem BioAssay AID222 (DTP/NCI, 2004)
“And” between values parts separate entries of the source, which are not always exact repeats. Equal entries are not always repeated. Toxic doses and inconclusive results are not listed.

Tested on: C57BL/6 mice, intracerebral ependymoblastoma, median survival T/C
Assay: NCI In Vivo Anticancer Drug Screen. Data for tumor model Ependymoblastoma (intracerebral) in C57BL/6 mice
Settings: endpoint: median survival time, higher = longer survival
Procedure: The antitumor activity of compounds was measured in mice bearing transplantable tumors. Survival or tumor size were measured and the results are expressed as the measurement made in the treated group (T) divided by the measurement made in the vehicle treated control group (C). The tumor model used in this assay is Ependymoblastoma (intracerebral) in C57BL/6 mice

[1] = dose: 0.25 mg/kg/injection, schedule: Q01DX005 (ip), vehicle: Klucel (hydroxypropylcellulose) (HPC)
[2] = dose: 0.5 mg/kg/injection, schedule: Q01DX005 (ip), vehicle: Klucel (hydroxypropylcellulose) (HPC)
[3] = dose: 4.0 mg/kg/injection, schedule: Q01DX005 (ip), vehicle: saline with Tween-80
[4] = dose: 4.0 mg/kg/injection, schedule: Q01DX005 (ip), vehicle: saline
[5] = dose: 8.0 mg/kg/injection, schedule: Q01DX005 (ip), vehicle: saline with Tween-80
[6] = dose: 8.0 mg/kg/injection, schedule: Q01DX005 (ip), vehicle: saline
[7] = dose: 16.0 mg/kg/injection, schedule: Q01DX005 (ip), vehicle: saline with Tween-80
[8] = dose: 32.0 mg/kg/injection, schedule: Q01DX005 (ip), vehicle: saline
[9] = dose: 64.0 mg/kg/injection, schedule: Q01DX005 (ip), vehicle: saline with Tween-80

Nc1nc([Se])c2ncn(C3OC(CO)C(O)C3O)c2n1 (stereo not drawn)
T/C [1]: 103 % of control and 106 % of control | T/C [2]: 107 % of control and 112 % of control | T/C (dose: 1.0 mg/kg/injection, schedule: Q01DX005 (ip), vehicle: Klucel (hydroxypropylcellulose) (HPC)): 99 % of control and 101 % of control | T/C (dose: 2.0 mg/kg/injection, schedule: Q01DX005 (ip), vehicle: Klucel (hydroxypropylcellulose) (HPC)): 100 % of control and 102 % of control and 112 % of control | T/C (dose: 4.0 mg/kg/injection, schedule: Q01DX005 (ip), vehicle: Klucel (hydroxypropylcellulose) (HPC)): 88 % of control and 105 % of control and 112 % of control | T/C [3]: 96 % of control | T/C [4]: 100 % of control | T/C [5]: 100 % of control | T/C [6]: 98 % of control and 99 % of control | T/C (dose: 16.0 mg/kg/injection, schedule: Q01DX005 (ip), vehicle: Klucel (hydroxypropylcellulose) (HPC)): 102 % of control and 103 % of control | T/C [7]: 113 % of control | T/C (dose: 16.0 mg/kg/injection, schedule: Q01DX005 (ip), vehicle: saline): 106 % of control and 111 % of control | T/C (dose: 27.8 mg/kg/injection, schedule: Q## X006 (ip), vehicle: saline): 108 % of control | T/C [8]: 116 % of control | T/C (dose: 32.0 mg/kg/injection, schedule: Q#A X002 (ip), vehicle: saline): 95 % of control and 104 % of control | T/C (dose: 55.7 mg/kg/injection, schedule: Q## X006 (ip), vehicle: saline): 112 % of control | T/C (dose: 64.0 mg/kg/injection, schedule: Q#A X002 (ip), vehicle: saline): 101 % of control and 120 % of control | T/C (dose: 128.0 mg/kg/injection, schedule: Q#A X002 (ip), vehicle: saline): 87 % of control

CCN(CC)c1ccc2cc3ccc(=[N+](CC)CC)cc-3oc2c1
T/C [4]: 100 % of control | T/C [6]: 107 % of control

CCOC(=O)C(C)(C)Oc1ccc(Cl)cc1
T/C (dose: 100.0 mg/kg/injection, schedule: Q01DX005 (ip), vehicle: saline with Tween-80): 96 % of control | T/C (dose: 200.0 mg/kg/injection, schedule: Q01DX005 (ip), vehicle: saline with Tween-80): 93 % of control

CC[C@]1(O)C[C@H]2CN(CCc3c([nH]c4ccccc34)[C@@](C(=O)OC)(c3cc4c(cc3OC)N(C=O)[C@H]3[C@@](O)(C(=O)OC)[C@H](OC(C)=O)[C@]5(CC)C=CCN6CC[C@]43[C@@H]65)C2)C1
T/C (dose: 0.05 mg/kg/injection, schedule: Q01DX005 (ip), vehicle: saline): 108 % of control | T/C (dose: 0.1 mg/kg/injection, schedule: Q01DX005 (ip), vehicle: saline): 103 % of control | T/C (dose: 0.2 mg/kg/injection, schedule: Q01DX005 (ip), vehicle: saline): 105 % of control | T/C (dose: 0.4 mg/kg/injection, schedule: Q01DX005 (ip), vehicle: saline): 124 % of control

Nc1nncs1
T/C (dose: 7.5 mg/kg/injection, schedule: Q01DX009 (ip), vehicle: Klucel (hydroxypropylcellulose) (HPC)): 112 % of control | T/C (dose: 15.0 mg/kg/injection, schedule: Q01DX009 (ip), vehicle: Klucel (hydroxypropylcellulose) (HPC)): 117 % of control | T/C [9]: 102 % of control

O=C(CCCN1CCC(O)(c2cccc(C(F)(F)F)c2)CC1)c1ccc(F)cc1
T/C (dose: 25.0 mg/kg/injection, schedule: Q04DX003 (ip), vehicle: Klucel (hydroxypropylcellulose) (HPC)): 103 % of control | T/C (dose: 50.0 mg/kg/injection, schedule: Q04DX003 (ip), vehicle: Klucel (hydroxypropylcellulose) (HPC)): 97 % of control

O=[N+]([O-])O.[Ga]
T/C [8]: 110 % of control

COc1cc2c3c(c1)-c1c(ccc(OC)c1OC)CC3N(CCN(CCCl)CCCl)CC2 (stereo not drawn)
T/C [3]: 101 % of control and 108 % of control | T/C [5]: 104 % of control and 105 % of control | T/C [7]: 108 % of control | T/C (dose: 32.0 mg/kg/injection, schedule: Q01DX005 (ip), vehicle: saline with Tween-80): 110 % of control

Cc1c[nH]c(=O)[nH]c1=O
T/C (dose: 32.0 mg/kg/injection, schedule: Q01DX005 (ip), vehicle: Klucel (hydroxypropylcellulose) (HPC)): 99 % of control | T/C [9]: 97 % of control | T/C (dose: 128.0 mg/kg/injection, schedule: Q01DX005 (ip), vehicle: Klucel (hydroxypropylcellulose) (HPC)): 97 % of control | T/C (dose: 128.0 mg/kg/injection, schedule: Q01DX005 (ip), vehicle: saline with Tween-80): 102 % of control | T/C (dose: 256.0 mg/kg/injection, schedule: Q01DX005 (ip), vehicle: Klucel (hydroxypropylcellulose) (HPC)): 95 % of control | T/C (dose: 256.0 mg/kg/injection, schedule: Q01DX005 (ip), vehicle: saline with Tween-80): 97 % of control | T/C (dose: 512.0 mg/kg/injection, schedule: Q01DX005 (ip), vehicle: Klucel (hydroxypropylcellulose) (HPC)): 106 % of control | T/C (dose: 512.0 mg/kg/injection, schedule: Q01DX005 (ip), vehicle: saline with Tween-80): 88 % of control | T/C (dose: 1024.0 mg/kg/injection, schedule: Q01DX005 (ip), vehicle: saline with Tween-80): 107 % of control

O=P1(NCCCl)OCCC(OO)N1CCCl (stereo not drawn)
T/C (dose: 40.0 mg/kg/injection, schedule: Q01DX001 (ip), vehicle: Klucel (hydroxypropylcellulose) (HPC)): 121 % of control | T/C (dose: 80.0 mg/kg/injection, schedule: Q01DX001 (ip), vehicle: Klucel (hydroxypropylcellulose) (HPC)): 121 % of control | T/C (dose: 160.0 mg/kg/injection, schedule: Q01DX001 (ip), vehicle: Klucel (hydroxypropylcellulose) (HPC)): 151 % of control

O=CC(NC(=O)N(CCCl)N=O)C(O)C(O)C(O)CO (stereo not drawn)
T/C (dose: 0.12 mg/kg/injection, schedule: Q01DX005 (ip), vehicle: Klucel (hydroxypropylcellulose) (HPC)): 95 % of control | T/C (dose: 0.12 mg/kg/injection, schedule: Q01DX005 (ip), vehicle: saline): 96 % of control and 104 % of control | T/C (dose: 0.13 mg/kg/injection, schedule: Q01DX005 (ip), vehicle: Klucel (hydroxypropylcellulose) (HPC)): 88 % of control | T/C (dose: 0.13 mg/kg/injection, schedule: Q01DX005 (ip), vehicle: saline): 89 % of control and 105 % of control | T/C [1]: 96 % of control and 123 % of control | T/C [2]: 97 % of control and 99 % of control | T/C (dose: 1.0 mg/kg/injection, schedule: Q01DX001 (ip), vehicle: Klucel (hydroxypropylcellulose) (HPC)): 96 % of control | T/C (dose: 2.0 mg/kg/injection, schedule: Q01DX001 (ip), vehicle: Klucel (hydroxypropylcellulose) (HPC)): 100 % of control | T/C (dose: 4.0 mg/kg/injection, schedule: Q01DX001 (ip), vehicle: Klucel (hydroxypropylcellulose) (HPC)): 97 % of control | T/C (dose: 8.0 mg/kg/injection, schedule: Q01DX001 (ip), vehicle: Klucel (hydroxypropylcellulose) (HPC)): 96 % of control | T/C (dose: 16.0 mg/kg/injection, schedule: Q01DX001 (ip), vehicle: Klucel (hydroxypropylcellulose) (HPC)): 114 % of control | T/C (dose: 32.0 mg/kg/injection, schedule: Q01DX005 (oral), vehicle: saline): 108 % of control | T/C (dose: 64.0 mg/kg/injection, schedule: Q01DX001 (oral), vehicle: saline): 89 % of control | T/C (dose: 64.0 mg/kg/injection, schedule: Q01DX005 (oral), vehicle: saline): 89 % of control | T/C (dose: 128.0 mg/kg/injection, schedule: Q01DX001 (oral), vehicle: saline): 98 % of control | T/C (dose: 256.0 mg/kg/injection, schedule: Q01DX001 (oral), vehicle: saline): 99 % of control | T/C (dose: 512.0 mg/kg/injection, schedule: Q01DX001 (oral), vehicle: saline): 95 % of control | T/C (dose: 1024.0 mg/kg/injection, schedule: Q01DX001 (oral), vehicle: saline): 99 % of control

Nc1nc(=S)c2ncn(C3OC(COC(=O)c4ccc(Cl)cc4)C(OC(=O)c4ccc(Cl)cc4)C3OC(=O)c3ccc(Cl)cc3)c2[nH]1 (stereo not drawn)
T/C (dose: 18.75 mg/kg/injection, schedule: Q01DX005 (ip), vehicle: Klucel (hydroxypropylcellulose) (HPC)): 96 % of control | T/C (dose: 37.5 mg/kg/injection, schedule: Q01DX005 (ip), vehicle: Klucel (hydroxypropylcellulose) (HPC)): 87 % of control
